Measured values: ChEMBL document CHEMBL1909046, “DrugMatrix in vitro pharmacology data”
*1 amine or outer side, *2 acyl side, *3 side chain or, on linkers, in order; H or OH if unused. Where a SMILES comes first, the peptide text is derived from it. Bridges are numbered along the chain shown (N, C = ends). Roman numbers before positions name the chains, in order. [ ]: non-standard residue; d: D form. Actinocin(1to9) = Cc1c2oc3c(C)ccc(C(=O)[*:2])c3nc-2c(C(=O)[*:1])c(N)c1=O; NMeV = CN[C@H](C(=O)O)C(C)C; Sar = CNCC(=O)O

Tests used:
[1] = DRUGMATRIX: Imidazoline I2, Central radioligand binding (ligand: [3H] Idazoxan); assay type: cell membranes, Rattus norvegicus, Wistar, Cerebral cortex, Membrane; conditions: Not Active = under 50% inhibition at 10 µM
[2] = target: T1, 5-hydroxytryptamine receptor 2C (Homo sapiens, UniProt P28335); experiment: DRUGMATRIX: Serotonin (5-Hydroxytryptamine) 5-HT2C radioligand binding (ligand: [3H] Mesulergine); assay type: cell membranes, CHO-K1, Membrane; conditions: Not Active = under 50% inhibition at 10 µM; for Ki: read-out: Ki
T1 sequence (P28335 whole entry): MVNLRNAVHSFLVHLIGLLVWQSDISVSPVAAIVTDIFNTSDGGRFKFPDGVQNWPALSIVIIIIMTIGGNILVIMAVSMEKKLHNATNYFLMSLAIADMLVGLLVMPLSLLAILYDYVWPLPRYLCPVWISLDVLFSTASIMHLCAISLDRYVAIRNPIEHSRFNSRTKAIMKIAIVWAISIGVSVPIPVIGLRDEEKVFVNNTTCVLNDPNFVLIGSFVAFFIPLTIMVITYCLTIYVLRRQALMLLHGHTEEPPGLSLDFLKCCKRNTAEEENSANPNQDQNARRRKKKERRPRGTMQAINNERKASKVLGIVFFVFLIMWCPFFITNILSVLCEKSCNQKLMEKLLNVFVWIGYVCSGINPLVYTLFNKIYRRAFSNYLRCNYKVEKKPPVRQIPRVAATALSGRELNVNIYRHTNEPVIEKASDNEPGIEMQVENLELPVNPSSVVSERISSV

Melanocortin receptor 3 = Melanocortin receptor 3 (Homo sapiens, UniProt P41968); assay type: cell membranes, HEK293, Membrane; conditions: hek293; note: in other assays of this panel Not Active means under 50% inhibition at 10 µM
Chain of Melanocortin receptor 3 (P41968 whole entry): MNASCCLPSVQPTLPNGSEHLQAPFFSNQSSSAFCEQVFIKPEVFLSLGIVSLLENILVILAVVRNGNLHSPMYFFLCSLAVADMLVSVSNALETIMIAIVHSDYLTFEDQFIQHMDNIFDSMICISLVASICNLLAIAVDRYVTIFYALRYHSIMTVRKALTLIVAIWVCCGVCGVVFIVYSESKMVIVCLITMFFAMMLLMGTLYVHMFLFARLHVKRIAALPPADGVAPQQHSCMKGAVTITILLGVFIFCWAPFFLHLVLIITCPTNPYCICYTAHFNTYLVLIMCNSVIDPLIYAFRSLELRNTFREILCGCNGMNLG

[3] = target: T2, C-C chemokine receptor type 4 (Homo sapiens, UniProt P51679); assay type: cell membranes, Chem-1, Membrane; conditions: chem-1; note: in other assays of this panel Not Active means under 50% inhibition at 10 µM
T2 sequence (P51679 whole entry): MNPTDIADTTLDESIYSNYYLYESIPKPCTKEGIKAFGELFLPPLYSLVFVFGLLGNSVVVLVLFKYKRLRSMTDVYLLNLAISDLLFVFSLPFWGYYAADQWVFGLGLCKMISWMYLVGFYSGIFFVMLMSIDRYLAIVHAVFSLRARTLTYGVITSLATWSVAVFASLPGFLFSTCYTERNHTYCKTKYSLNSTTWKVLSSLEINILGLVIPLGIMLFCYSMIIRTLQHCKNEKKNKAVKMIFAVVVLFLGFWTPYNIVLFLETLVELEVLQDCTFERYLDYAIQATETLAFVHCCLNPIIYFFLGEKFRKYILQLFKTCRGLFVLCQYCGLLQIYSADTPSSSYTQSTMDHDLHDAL

Glucocorticoid receptor = target: T3, Glucocorticoid receptor (Homo sapiens, UniProt P04150); conditions: hela s3; note: in other assays of this panel Not Active means under 50% inhibition at 10 µM
T3 sequence (P04150 whole entry): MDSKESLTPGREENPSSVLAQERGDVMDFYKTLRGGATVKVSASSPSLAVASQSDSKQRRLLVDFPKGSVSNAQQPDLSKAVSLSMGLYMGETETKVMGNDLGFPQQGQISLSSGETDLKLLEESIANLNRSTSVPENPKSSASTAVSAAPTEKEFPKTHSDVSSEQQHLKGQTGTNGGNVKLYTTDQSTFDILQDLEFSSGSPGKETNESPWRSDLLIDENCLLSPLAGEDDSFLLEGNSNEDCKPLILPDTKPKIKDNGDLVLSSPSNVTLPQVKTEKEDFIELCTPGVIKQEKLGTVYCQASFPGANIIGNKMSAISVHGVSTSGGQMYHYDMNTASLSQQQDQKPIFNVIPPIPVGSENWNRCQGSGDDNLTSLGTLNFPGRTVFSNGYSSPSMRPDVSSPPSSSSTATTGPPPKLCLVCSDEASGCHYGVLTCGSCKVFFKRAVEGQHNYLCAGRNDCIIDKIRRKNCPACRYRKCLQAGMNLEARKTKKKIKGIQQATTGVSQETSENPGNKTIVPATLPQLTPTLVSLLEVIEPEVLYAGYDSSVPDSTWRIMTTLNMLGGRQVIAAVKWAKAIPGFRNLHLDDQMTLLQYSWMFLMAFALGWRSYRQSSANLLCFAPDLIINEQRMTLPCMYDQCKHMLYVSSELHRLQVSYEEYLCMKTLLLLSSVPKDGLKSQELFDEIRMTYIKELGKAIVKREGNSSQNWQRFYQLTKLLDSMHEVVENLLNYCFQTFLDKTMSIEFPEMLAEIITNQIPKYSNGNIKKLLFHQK

[4] = DRUGMATRIX: Sigma2 radioligand binding (ligand: [3H] Ifenprodil); assay type: cell membranes, Rattus norvegicus, Wistar, Brain, Membrane; conditions: Not Active = under 50% inhibition at 10 µM

Compound | IC50 [1] | Ki [1] | IC50 ([2]; cho-k1) | IC50 (Melanocortin receptor 3) | IC50 [3] | IC50 (Glucocorticoid receptor) | IC50 [4] | Ki [4] | IC50 ([1]; read-out: IC50) | Ki ([1]; read-out: Ki) | IC50 ([2]; read-out: IC50) | Ki [2] | IC50 ([4]; read-out: IC50) | Ki ([4]; read-out: Ki)
CC(C)(Oc1ccc(Cl)cc1)C(=O)O [CLOFIBRIC ACID] | Not Active | Not Active | Not Active | Not Active | Not Active | Not Active | Not Active | Not Active | – | – | – | – | – | –
Clc1cccc(Cl)c1NC1=NCCN1 [CLONIDINE] | – | – | Not Active | Not Active | Not Active | Not Active | Not Active | Not Active | 64 nM | 43 nM | – | – | – | –
Cc1cc(C(C#N)c2ccc(Cl)cc2)c(Cl)cc1NC(=O)c1cc(I)cc(I)c1O (configuration not stated) [CLOSANTEL] | Not Active | Not Active | Not Active | Not Active | Not Active | Not Active | Not Active | Not Active | – | – | – | – | – | –
Cc1onc(-c2ccccc2Cl)c1C(=O)N[C@@H]1C(=O)N2[C@@H]1SC(C)(C)[C@@H]2C(=O)O [CLOXACILLIN] | Not Active | Not Active | Not Active | Not Active | Not Active | Not Active | Not Active | Not Active | – | – | – | – | – | –
Cc1c2oc3c(C)ccc(C(=O)N[C@@H]4C(=O)N[C@H](C(C)C)C(=O)N5CCC[C@H]5C(=O)N(C)CC(=O)N(C)[C@@H](C(C)C)C(=O)O[C@@H]4C)c3nc-2c(C(=O)N[C@@H]2C(=O)N[C@H](C(C)C)C(=O)N3CCC[C@H]3C(=O)N(C)CC(=O)N(C)[C@@H](C(C)C)C(=O)O[C@@H]2C)c(N)c1=O [DACTINOMYCIN] (I: T[dV]P[Sar][NMeV] / II: T[dV]P[Sar][NMeV]; ester I:1-I:C, II:1-II:C; linker I:N-II:N via Actinocin(1to9)) | Not Active | Not Active | Not Active | Not Active | Not Active | Not Active | Not Active | Not Active | – | – | – | – | – | –
Cc1c(O)c(=O)ccn1C [DEFERIPRONE] | Not Active | Not Active | Not Active | Not Active | Not Active | Not Active | Not Active | Not Active | – | – | – | – | – | –
C[C@H]1O[C@@H](O[C@H]2[C@@H](O)C[C@H](O[C@H]3[C@@H](O)C[C@H](O[C@H]4CC[C@@]5(C)[C@H](CC[C@@H]6[C@@H]5C[C@@H](O)[C@]5(C)[C@@H](C7=CC(=O)OC7)CC[C@]65O)C4)O[C@@H]3C)O[C@@H]2C)C[C@H](O)[C@@H]1O [DIGOXIN] | Not Active | Not Active | Not Active | Not Active | Not Active | Not Active | Not Active | Not Active | – | – | – | – | – | –
CC(C)[C@@]1(NC(=O)[C@@H]2C[C@@H]3c4cccc5[nH]cc(c45)C[C@H]3N(C)C2)O[C@@]2(O)[C@@H]3CCCN3C(=O)[C@H](Cc3ccccc3)N2C1=O.CS(=O)(=O)O [DIHYDROERGOCRISTINE MESYLATE] | – | – | – | Not Active | Not Active | Not Active | Not Active | Not Active | 5.43 nM | 3.62 nM | 239 nM | 125 nM | – | –
O=C(CCCN1CC=C(n2c(=O)[nH]c3ccccc32)CC1)c1ccc(F)cc1 [DROPERIDOL] | – | – | – | Not Active | Not Active | Not Active | – | – | 2850 nM | 1900 nM | 454 nM | 238 nM | 3280 nM | 2020 nM
CC(C)[C@H]1C(=O)N2CCC[C@H]2[C@]2(O)O[C@](NC(=O)[C@@H]3C=C4c5cccc6[nH]cc(c56)C[C@H]4N(C)C3)(C(C)C)C(=O)N12 [ERGOCORNINE] | – | – | – | Not Active | Not Active | Not Active | Not Active | Not Active | 4.49 nM | 2.99 nM | 104 nM | 55 nM | – | –
OC(Cn1cncn1)(Cn1cncn1)c1ccc(F)cc1F [FLUCONAZOLE] | Not Active | Not Active | Not Active | Not Active | Not Active | Not Active | Not Active | Not Active | – | – | – | – | – | –
N=C(N)NCCN1CCCCCCC1 [GUANETHIDINE] | Not Active | Not Active | Not Active | Not Active | Not Active | Not Active | Not Active | Not Active | – | – | – | – | – | –
O=c1[nH]c(=O)n([C@H]2C[C@H](O)[C@@H](CO)O2)cc1I [IDOXURIDINE] | Not Active | Not Active | Not Active | Not Active | Not Active | Not Active | Not Active | Not Active | – | – | – | – | – | –
Nc1nc(N)nc(-c2cc(Cl)ccc2Cl)n1.O=C(O)/C=C\C(=O)O [IRSOGLADINE MALEATE] | Not Active | Not Active | Not Active | Not Active | Not Active | Not Active | Not Active | Not Active | – | – | – | – | – | –
CCCCc1nc(Cl)c(CO)n1Cc1ccc(-c2ccccc2-c2nnn[nH]2)cc1 [LOSARTAN] | Not Active | Not Active | Not Active | Not Active | Not Active | Not Active | Not Active | Not Active | – | – | – | – | – | –
Cc1ccccc1N1C(=O)c2cc(S(N)(=O)=O)c(Cl)cc2NC1C (configuration not stated) [METOLAZONE] | Not Active | Not Active | Not Active | Not Active | Not Active | Not Active | Not Active | Not Active | – | – | – | – | – | –
COCCc1ccc(OCC(O)CNC(C)C)cc1 (configuration not stated) [METOPROLOL] | Not Active | Not Active | Not Active | Not Active | Not Active | Not Active | Not Active | Not Active | – | – | – | – | – | –
CCn1cc(C(=O)O)c(=O)c2cc(F)c(N3CCNCC3)cc21 [NORFLOXACIN] | Not Active | Not Active | Not Active | Not Active | Not Active | Not Active | Not Active | Not Active | – | – | – | – | – | –
NC1=NC(=O)C(c2ccccc2)O1 (configuration not stated) [PEMOLINE] | Not Active | Not Active | Not Active | Not Active | Not Active | Not Active | Not Active | Not Active | – | – | – | – | – | –
Nc1nc2c(ncn2CCC(CO)CO)c(=O)[nH]1 [PENCICLOVIR] | Not Active | Not Active | Not Active | Not Active | Not Active | Not Active | Not Active | Not Active | – | – | – | – | – | –
C=C(C)C1(O)OC(=O)C=C1OC (configuration not stated) [PENICILLIC ACID] | Not Active | Not Active | Not Active | Not Active | Not Active | Not Active | Not Active | Not Active | – | – | – | – | – | –
CC1(C)S[C@@H]2[C@H](NC(=O)Cc3ccccc3)C(=O)N2[C@H]1C(=O)O [PENICILLIN G] | Not Active | Not Active | Not Active | Not Active | Not Active | Not Active | Not Active | Not Active | – | – | – | – | – | –
C1CCC(C(CC2CCCCN2)C2CCCCC2)CC1 (configuration not stated) [PERHEXILINE] | Not Active | Not Active | Not Active | Not Active | Not Active | Not Active | Not Active | Not Active | – | – | – | – | – | –
